{"source": "ChEMBL document CHEMBL1201862", "about": "“PubChem BioAssay data set” (2004)", "test_in_all_cases": "DTP human tumour cell line panel, 48 h", "key": {"DMS-114": {"system": "DMS-114"}, "SNB-78": {"system": "SNB-78"}, "KM-20L2": {"system": "KM-20L2"}, "LXFL 529": {"system": "LXFL 529"}, "DLD-1": {"system": "DLD-1"}, "MDA-MB-435": {"system": "MDA-MB-435"}, "MDA-N": {"system": "MDA-N"}, "XF498": {"system": "XF498"}}, "note": "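Results reflect a 48-hour exposure of cells in 96-well plates to compound at five concentrations. Here, GI50 denotes the concentration required for 50% inhibition of growth.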 The source made the active and inactive calls. No stated cut-off is given here; in the data, active = GI50 up to about 1.1 µM and inactive = higher. Square brackets hold non-standard residues; d marks the D form. Peptide text beside a SMILES is read from it. * marks the point of attachment. Boc = CC(C)(C)OC(=O)*; Lac = C[CH](O)C(=O)O; OBn = c1ccc(CO*)cc1"}
{"smiles": "COc1ccc(C(=O)NNC(=O)c2nsc3ccccc23)cc1", "values": [{"measurement": "GI50", "setting": "DMS-114", "result": "63 µM (inactive)"}, {"measurement": "GI50", "setting": "SNB-78", "result": "> 100 µM (inactive)"}, {"measurement": "GI50", "setting": "KM-20L2", "result": "35.9 µM (inactive)"}, {"measurement": "GI50", "setting": "LXFL 529", "result": "> 100 µM (inactive)"}]}
{"smiles": "CCOC(=O)C1CCn2c(nc3c2c(=O)n(C)c(=O)n3C)S1", "note": "(centres undefined)", "values": [{"measurement": "GI50", "setting": "DLD-1", "result": "> 100 µM (inactive)"}, {"measurement": "GI50", "setting": "SNB-78", "result": "> 100 µM (inactive)"}, {"measurement": "GI50", "setting": "KM-20L2", "result": "> 100 µM (inactive)"}, {"measurement": "GI50", "setting": "LXFL 529", "result": "> 100 µM (inactive)"}]}
{"smiles": "CCC(=O)NC(Nc1cccc(F)c1)(C(F)(F)F)C(F)(F)F", "values": [{"measurement": "GI50", "setting": "MDA-MB-435", "result": "> 100 µM (inactive)"}, {"measurement": "GI50", "setting": "MDA-N", "result": "> 100 µM (inactive)"}]}
{"smiles": "C[C@H]1S[C@@H](c2ccc(Cl)cc2Cl)N(NC(=O)c2ccncc2)C1=O", "values": [{"measurement": "GI50", "setting": "MDA-MB-435", "result": "43.6 µM (inactive)"}, {"measurement": "GI50", "setting": "MDA-N", "result": "> 10 µM (inactive)"}]}
{"smiles": "Nc1ccccc1C(=O)N/N=C1\\C(=O)Nc2ccccc21", "values": [{"measurement": "GI50", "setting": "MDA-MB-435", "result": "> 100 µM (inactive)"}, {"measurement": "GI50", "setting": "MDA-N", "result": "> 100 µM (inactive)"}]}
{"smiles": "Cc1n[nH]c(CC#N)n1", "values": [{"measurement": "GI50", "setting": "MDA-MB-435", "result": "> 100 µM (inactive)"}, {"measurement": "GI50", "setting": "MDA-N", "result": "> 100 µM (inactive)"}]}
{"smiles": "COC(=O)C(F)C(Br)C(=O)OC", "note": "(centres undefined)", "values": [{"measurement": "GI50", "setting": "MDA-MB-435", "result": "8.38 µM (inactive)"}, {"measurement": "GI50", "setting": "MDA-N", "result": "8.51 µM (inactive)"}]}
{"smiles": "COc1cc2cc(C(=O)N3CC(CCl)c4ccc(NO)cc43)[nH]c2c(OC)c1OC", "note": "(centres undefined)", "values": [{"measurement": "GI50", "setting": "MDA-MB-435", "result": "0.216 µM (active)"}, {"measurement": "GI50", "setting": "MDA-N", "result": "0.249 µM (active)"}]}
{"smiles": "CC1CC2=C(S(=O)(=O)c3ccccc3)CC(S(=O)(=O)c3ccccc3)(S(=O)(=O)c3ccccc3)CC21", "note": "(centres undefined)", "values": [{"measurement": "GI50", "setting": "DLD-1", "result": "> 100 µM (inactive)"}, {"measurement": "GI50", "setting": "DMS-114", "result": "9.64 µM (inactive)"}, {"measurement": "GI50", "setting": "KM-20L2", "result": "> 100 µM (inactive)"}, {"measurement": "GI50", "setting": "XF498", "result": "> 100 µM (inactive)"}]}
{"smiles": "OC1CCOc2ccccc21", "note": "(centres undefined)", "values": [{"measurement": "GI50", "setting": "DLD-1", "result": "> 100 µM (inactive)"}, {"measurement": "GI50", "setting": "DMS-114", "result": "> 100 µM (inactive)"}, {"measurement": "GI50", "setting": "KM-20L2", "result": "> 100 µM (inactive)"}, {"measurement": "GI50", "setting": "LXFL 529", "result": "> 100 µM (inactive)"}, {"measurement": "GI50", "setting": "XF498", "result": "> 100 µM (inactive)"}]}
{"smiles": "Cc1cc(=O)oc2c1cc1ccc3cccc4ccc2c1c34", "values": [{"measurement": "GI50", "setting": "DLD-1", "result": "> 100 µM (inactive)"}, {"measurement": "GI50", "setting": "SNB-78", "result": "83 µM (inactive)"}, {"measurement": "GI50", "setting": "KM-20L2", "result": "> 100 µM (inactive)"}, {"measurement": "GI50", "setting": "LXFL 529", "result": "> 100 µM (inactive)"}]}
{"smiles": "COP(=O)(OC)C(N)Cc1c[nH]c2ccccc12", "note": "(centres undefined)", "values": [{"measurement": "GI50", "setting": "MDA-MB-435", "result": "> 100 µM (inactive)"}, {"measurement": "GI50", "setting": "MDA-N", "result": "> 100 µM (inactive)"}]}
{"smiles": "Nc1ccn(C2OC(CO[PH](=O)OC3C(CO[PH](=O)OC4C(CO[PH](=O)OC5C(CO[PH](=O)OC6C(CO[PH](=O)OC7C(CO[PH](=O)OC8C(CO[PH](=O)OC9C(CO[PH](=O)OC%10C(CO[PH](=O)OC%11C(CO)OC(n%12ccc(N)nc%12=O)C%11(F)F)OC(n%11ccc(N)nc%11=O)C%10(F)F)OC(n%10ccc(N)nc%10=O)C9(F)F)OC(n9ccc(N)nc9=O)C8(F)F)OC(n8ccc(N)nc8=O)C7(F)F)OC(n7ccc(N)nc7=O)C6(F)F)OC(n6ccc(N)nc6=O)C5(F)F)OC(n5ccc(N)nc5=O)C4(F)F)OC(n4ccc(N)nc4=O)C3(F)F)C(O)C2(F)F)c(=O)n1", "note": "(centres undefined)", "values": [{"measurement": "GI50", "setting": "MDA-MB-435", "result": "0.0526 µM (active)"}, {"measurement": "GI50", "setting": "MDA-N", "result": "0.0442 µM (active)"}]}
{"smiles": "O=C1CSC(/C=C/c2ccccc2)N1c1nc2cc3sc(N4C(=O)CSC4/C=C/c4ccccc4)nc3cc2s1", "note": "(centres undefined)", "values": [{"measurement": "GI50", "setting": "MDA-MB-435", "result": "> 65.6 µM (inactive)"}, {"measurement": "GI50", "setting": "MDA-N", "result": "> 44.8 µM (inactive)"}]}
{"smiles": "CC1CC(C[N+](=O)[O-])CC2(C1)OCCO2", "note": "(centres undefined)", "values": [{"measurement": "GI50", "setting": "DLD-1", "result": "> 100 µM (inactive)"}, {"measurement": "GI50", "setting": "DMS-114", "result": "> 100 µM (inactive)"}, {"measurement": "GI50", "setting": "SNB-78", "result": "> 100 µM (inactive)"}, {"measurement": "GI50", "setting": "KM-20L2", "result": "> 100 µM (inactive)"}, {"measurement": "GI50", "setting": "LXFL 529", "result": "> 100 µM (inactive)"}]}
{"smiles": "Cn1c(=O)c(C#N)c(O)c2cc3ccccc3nc21", "values": [{"measurement": "GI50", "setting": "DLD-1", "result": "> 100 µM (inactive)"}, {"measurement": "GI50", "setting": "DMS-114", "result": "> 100 µM (inactive)"}, {"measurement": "GI50", "setting": "SNB-78", "result": "> 100 µM (inactive)"}, {"measurement": "GI50", "setting": "LXFL 529", "result": "> 100 µM (inactive)"}, {"measurement": "GI50", "setting": "XF498", "result": "> 100 µM (inactive)"}]}
{"smiles": "O=C(OCCOC(=O)c1ccc2c(c1)C1(SCCS1)c1ccccc1-2)c1ccc2c(c1)C1(SCCS1)c1ccccc1-2", "values": [{"measurement": "GI50", "setting": "DLD-1", "result": "> 100 µM (inactive)"}, {"measurement": "GI50", "setting": "DMS-114", "result": "> 100 µM (inactive)"}, {"measurement": "GI50", "setting": "SNB-78", "result": "> 100 µM (inactive)"}, {"measurement": "GI50", "setting": "KM-20L2", "result": "> 100 µM (inactive)"}, {"measurement": "GI50", "setting": "LXFL 529", "result": "> 100 µM (inactive)"}]}
{"smiles": "O=C1NC(O)CCN1C1OC(CO)C(O)C1O", "note": "(centres undefined)", "values": [{"measurement": "GI50", "setting": "DLD-1", "result": "> 250 µM (inactive)"}, {"measurement": "GI50", "setting": "DMS-114", "result": "> 250 µM (inactive)"}, {"measurement": "GI50", "setting": "SNB-78", "result": "> 250 µM (inactive)"}, {"measurement": "GI50", "setting": "KM-20L2", "result": "> 68.7 µM (inactive)"}, {"measurement": "GI50", "setting": "XF498", "result": "> 250 µM (inactive)"}]}
{"smiles": "CC(OC(=O)C(Cc1ccccc1)NC(=O)C(Cc1ccccc1)NC(=O)OC(C)(C)C)C(=O)OCc1ccccc1", "note": "(stereo not drawn) (Boc-Phe-Phe-[Lac]-OBn; configuration not given here)", "values": [{"measurement": "GI50", "setting": "MDA-MB-435", "result": "> 100 µM (inactive)"}, {"measurement": "GI50", "setting": "MDA-N", "result": "> 100 µM (inactive)"}]}
{"smiles": "CC/C=C\\C/C=C\\C/C=C\\CCCCCCCC(=O)OC", "note": "[METHYL LINOLENATE]", "values": [{"measurement": "GI50", "setting": "DLD-1", "result": "> 100 µM (inactive)"}, {"measurement": "GI50", "setting": "DMS-114", "result": "> 100 µM (inactive)"}, {"measurement": "GI50", "setting": "XF498", "result": "> 100 µM (inactive)"}]}
